Literature values, collected in patent publication US5292505A, “Sulphated vinyl polymer in composition for treating retroviral infections” (Stichting Rega VZW, priority 1989, dated 1994).

What was measured:
[1] = tested on: Molt-4 cells co-cultured with HIV-1-infected HUT-78 cells; conditions: statement without own test
[2] = tested on: AIDS; conditions: AIDS patients, Fischl et al

In the case of `Cc1cn([C@H]2C[C@H](N=[N+]=[N-])[C@@H](CO)O2)c(=O)[nH]c1=O` [azidothymidine, 3'-azido-2',3'-dideoxythymidine], the “inhibition of giant cell formation” value [1] is listed as “does not show such effect” and the clinical effectiveness [2] is listed as “clinically effective”.
